# In patent US20100068692A1, “ANTIFREEZE GLYCOPROTEIN ANALOGUES AND USES THEREOF” (UNIVERSITY OF OTTAWA, priority 2008, published 2010):
# Entries after “also recorded” stand apart in the source; their conditions may differ.
# Tests used:
# [1] = isentropic, value x10^4, aqueous solution at 298 K; cited from earlier work
# [2] = Recrystallization inhibition (RI) assay, mean largest grain size (Experiment 1); settings: carbohydrate concentration corrected to 0.021 mmole/L (FIG. 3)
# Description: All measurements were performed in triplicate. The Y-axis depicts the mean largest grain size (MLGS in mm^2) of ice crystals measured directly from photographs of the sample, as described previously (Raymond, J. A. D., A. L., Proc. Natl. Acad. Sci. USA 1977, 74, 2589).
# All samples were compared to a solution of phosphate buffered saline (PBS) which was used as a negative control and a solution of AFGP 8 isolated from Gagus ogac (generously provided by AquaBounty Farms). Each solution was tested at three different concentrations in order to rule out any non-specific RI effects. The Y-axis in FIG. 5 represents mean largest grain size (MLGS) where small bars are representative of potent recrystallization-inhibition activity.
# The Y-axis in FIG. 7 represents the mean largest grain size (MLGS) which is an average ice crystal surface area for each sample.
# [3] = Nanolitre osmometry of carbohydrate solutions (Experiment 2); settings: 10 mg/mL solutions in double-distilled water
# Description: Nanoliter osmometry was performed using a nanoliter osmometer (Clifton Technical Physics, Hartford, N.Y.) as described by Chakrabartty and Hew (Chakrabartty, A.; Hew, C. L. Eur. J. Biochem. 1991, 202, 1057-1063). All measurements were made in doubly distilled water. Ice crystal morphology was observed through a Leitz compound microscope equipped with an Olympus 20× (infinity corrected) objective, Leitz Periplan 32× photo eyepiece and a Hitachi KP-M2U CCD camera connected to a Toshiba MV13K1 TV/VCR system. Still images were captured directly using a Nikon CoolPix digital camera.
# It has been proposed that the optimal distance between hydroxyl groups is 4.2-4.5 Angstroms (Baruch, E.; Belostotskii, A. M.; Mastai, Y. J. Mol. Struct. 2008, 874, 170).
# [4] = RI assay, splat cooling with domain recognition software (Experiment 2)
# Description: Sample analysis for RI activity was performed using the “splat cooling” method as described previously (Knight, C. A.; Hallet, J.; DeVries, A. L. Cryobiology, 1998, 25, 55). In this method, the analyte is dissolved in phosphate buffered saline (PBS) solution and a 10 μL drop of this solution is dropped from a micropipette through a two metre high plastic tube (10 cm in diameter) onto a block of polished aluminum pre-cooled to approximately −80° C. The droplet freezes instantly on the polished aluminum block and is approximately 1 cm in diameter and 20 μm thick. This wafer is then carefully removed from the surface of the block and transferred to a cryostage held at −6.4° C. for annealing. After a period of 30 minutes, the wafer was photographed between crossed polarizing filters using a digital camera (Nikon CoolPix 5000) fitted to the microscope. A total of three images are taken from each wafer. During flash freezing, ice crystals spontaneously nucleate from the super-cooled solution. These initial crystals are relatively homogenous in size and quite small. During the annealing cycle recrystallization occurs, resulting in a dramatic increase in ice crystal size. A quantitative measure of the difference in recrystallization inhibition of two compounds X and Y is the difference in the dynamics of the ice crystal size distribution. […] This processing employed of the Microsoft Windows Graphical User Interface to allow a user to visually demarcate and store the vertices of ice domains in a digital micrograph. […] To eliminate the need to fully process each micrograph, an algorithm was developed to randomly display a number of x/y locations. The algorithm made use of a built-in pseudo random number generator (rand(x)) and was written so that no two locations were closer than 1/10th the field of view of the micrograph. The formula for the area of a polygon that is not self-intersecting and contains no holes is then given by Eq.2,
# where N is the number of vertices, and x0, y0 to xN−1, yN−1 are the vertices circumventing the polygon in a clockwise direction. The point x0, y0 is assumed to be equivalent to the point xN, yN. The software was written in C using Microsoft Visual Studio 6.0 on a Pentium class personal computer running Microsoft Windows 2000 or XP. All data was plotted and analyzed using Microsoft Excel.
# [5] = Thermal hysteresis (TH), microcapilliary method
# [6] = Nanoliter osmometer: thermal hysteresis and dynamic ice shaping (Experiment 1); settings: without antifreeze the crystal is perfectly round, 'Identical images' refers to that, 13: 0.0033 mmole/L in doubly distilled water
# Description: FIG. 4 (A) depicts a single ice crystal in the absence of biological antifreeze. Notice that the crystal is perfectly round and has no facets or edges.
# AFGP analogues 18a-c were assayed for antifreeze protein-specific activity using nanoliter osmometry and a recrystallization-inhibition assay.
molecule,measurement,setting,value
OCC1O[C@H](O[C@@H]2C(CO)O[C@@H](O)C(O)C2O)C(O)C(O)[C@@H]1O (stereo partly shown),Molar Compressibility (K2°(s)x10^4),[1],−23.7 cm^3 mol^−1 bar^−1
N[C@@H](CCCCNC(=O)C[C@H]1OC(CO)[C@H](O)[C@H](O)C1O)C(=O)NCC(=O)NCC(=O)O (stereo partly shown) [Compound 10],RI activity relative to PBS (in words),[2],do not show any RI activity
OCC1O[C@@H](O)C(O)[C@@H](O)[C@H]1O (stereo partly drawn) [D-galactose],Melting Point,[3],−0.069 °C
same,RI activity (in words),[4]; 0.022 M in PBS solution,inhibit recrystallization as well as a 3% DMSO solution
same,RI activity (in words),"[4]; 0.022 M in PBS solution, listed as galactose",as efficient at inhibiting recrystallization as a 3% (v/v) DMSO solution; also recorded: possesses the most RI activity
same,RI activity (in words),[4]; 0.044 M solution in PBS,RI activity similar to that of a 0.022 M solution
same,RI activity (in words),[4]; 0.22 M solution in PBS,effective inhibitor of recrystallization
OCC1O[C@@H](O)C(O)[C@@H](O)[C@@H]1O (stereo partly drawn) [D-glucose],Molar Compressibility (K2°(s)x10^4),[1],−17.6 cm^3 mol^−1 bar^−1
same,Melting Point,[3],−0.055 °C
OCC1O[C@H](O[C@H]2OC(CO)[C@@H](O)C(O)C2O)C(O)C(O)[C@@H]1O (stereo partly drawn) [D-trehalose],Melting Point,[3],−0.015 °C
"C[S+](C)[O-] [DMSO, dimethylsulfoxide]",RI activity (in words),[4]; 0.1% (v/v) solution in PBS,failed to inhibit recrystallization
same,RI activity (in words),[4]; 4% (v/v) solution in PBS,produced a significant RI effect
OCC1O[C@H](O[C@H]2OC(CO)[C@@H](O)C(O)C2O)C(O)C(O)[C@@H]1O (stereo partly shown) [drawing 28],Molar Compressibility (K2°(s)x10^4),[1],−30.2 cm^3 mol^−1 bar^−1
OCC(O)CO [glycerol],temperature below the melting point at which rapid crystal growth occurred / solution freezes,[5],−0.01 °C
OCC1O[C@H](OCC2O[C@@H](O)C(O)C(O)[C@@H]2O)C(O)C(O)[C@H]1O (stereo partly shown) [melibiose],Molar Compressibility (K2°(s)x10^4),[1],−31.2 cm^3 mol^−1 bar^−1
same,Melting Point,[3],−0.17 °C
same,RI activity (in words),[4]; 0.022 M in PBS solution,is the most potent
"[Cl-].[Na+] [salt, sodium chloride]",temperature below the melting point at which rapid crystal growth occurred / solution freezes,[5],−0.01 °C
same,single ice crystal morphology,[6],Identical images
OC[C@H]1O[C@@](CO)(O[C@H]2O[C@H](CO)[C@@H](O)[C@H](O)[C@H]2O)[C@@H](O)[C@@H]1O [sucrose],RI activity (in words),[4]; 0.022 M in PBS solution,little effect upon recrystallization
OCC1O[C@@H](O)C(O)[C@@H](O)[C@H]1O (stereo partly shown) [talose],Molar Compressibility (K2°(s)x10^4),[1],−11.9 cm^3 mol^−1 bar^−1
(L-lysine-glycine-glycine)-6-glycine [peptide control],RI activity relative to PBS (in words),[2],did not inhibit the growth of ice
